This is an account of results in patent US20250163016A1, “PYRIDINE DERIVATIVE, PREPARATION METHOD THEREFOR AND USE THEREOF” (CHENGDU EASTON BIOPHARMACEUTICALS CO., LTD., priority 2022, published 2025).

Experiment [1] deals with HL-60 cell subcutaneous heterograft tumor. The experiment is described as follows: In-vivo efficacy in HL-60 cell subcutaneous heterograft tumor model. Also noted: species or system Balb/C nu mice. Conditions: HL-60 xenograft, qd, p.o., 10 mg/Kg, 10 days. How it is done: • DMEM culture medium containing 10% fetal bovine serum (FBS), 37° C., 5% CO2.
Balb/C nu mice, female, 6-8 weeks, weight about 18-22 grams, and each mouse was subcutaneously inoculated with 0.1 mL (1×10^7 cells+matrigel) of HL-60 cells on the right side. When an average volume of tumors reached 100-200 cubic millimeters, group administration was performed, see the table below (Table 13) for administration dosages and methods. The tumor volume was measured twice a week, the weights of the mice as well as lengths and widths of tumors were recorded in each time of measurement, and the tumor volume=length×width×width/2 mm^3. When the average tumor volume of a solvent group grew to 3000 cubic millimeters or above, administration was ended, and an average tumor volume difference between a tested compound group and the solvent group was obtained via comparison. The tumor suppression effects of the compounds were evaluated with TGI (%), which could reflect a tumor growth inhibition rate.

The target of experiment [2] is T1, hERG ion channel (Homo sapiens, UniProt Q12809).
T1 construct: expressed in transfected cells; host or cells: HEK293
T1 sequence (Q12809 whole entry): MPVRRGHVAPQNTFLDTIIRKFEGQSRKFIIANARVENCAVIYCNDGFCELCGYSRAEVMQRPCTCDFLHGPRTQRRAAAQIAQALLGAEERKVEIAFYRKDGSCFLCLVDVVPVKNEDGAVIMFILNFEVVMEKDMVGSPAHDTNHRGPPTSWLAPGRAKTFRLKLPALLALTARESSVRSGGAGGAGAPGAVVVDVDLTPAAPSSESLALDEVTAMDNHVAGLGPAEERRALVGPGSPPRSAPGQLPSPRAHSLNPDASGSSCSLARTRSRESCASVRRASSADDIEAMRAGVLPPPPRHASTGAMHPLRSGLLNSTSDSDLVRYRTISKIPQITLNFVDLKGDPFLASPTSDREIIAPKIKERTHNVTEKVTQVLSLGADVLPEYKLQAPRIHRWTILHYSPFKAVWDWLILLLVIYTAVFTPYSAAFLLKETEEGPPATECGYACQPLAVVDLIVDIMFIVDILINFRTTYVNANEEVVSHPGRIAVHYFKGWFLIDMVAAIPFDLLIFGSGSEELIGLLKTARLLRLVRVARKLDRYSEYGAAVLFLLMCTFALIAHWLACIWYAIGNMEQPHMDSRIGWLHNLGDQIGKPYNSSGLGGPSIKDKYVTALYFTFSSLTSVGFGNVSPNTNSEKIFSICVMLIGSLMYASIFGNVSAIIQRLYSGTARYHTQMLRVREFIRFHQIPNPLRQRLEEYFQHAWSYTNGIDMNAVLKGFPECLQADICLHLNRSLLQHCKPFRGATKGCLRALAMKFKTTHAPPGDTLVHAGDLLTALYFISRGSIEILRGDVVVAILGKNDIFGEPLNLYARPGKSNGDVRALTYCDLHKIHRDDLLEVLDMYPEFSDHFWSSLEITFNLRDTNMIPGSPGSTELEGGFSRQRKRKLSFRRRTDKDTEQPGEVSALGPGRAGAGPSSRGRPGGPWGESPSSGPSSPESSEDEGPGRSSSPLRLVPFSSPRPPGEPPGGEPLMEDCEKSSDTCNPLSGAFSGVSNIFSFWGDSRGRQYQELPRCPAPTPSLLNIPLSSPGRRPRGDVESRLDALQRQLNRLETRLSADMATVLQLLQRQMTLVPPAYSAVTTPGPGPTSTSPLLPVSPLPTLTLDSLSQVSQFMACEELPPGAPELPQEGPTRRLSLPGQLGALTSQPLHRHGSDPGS
The experiment in a line: In-vitro hERG inhibitory activity (whole cell patch clamp, HEK293 cells). The class given is cell-based. The note with it: HEK293 cells stably expressing hERG channels, read-out: IC50 on hERG current. (In general: Block of hERG is tested as a sign of cardiac risk.)
Protocol: A whole cell sheet technology was used to detect the blocking effects of compounds on hERG channels on HEK293 cells stably expressing hERG channels, and a median inhibitory concentration IC50 of the compound was determined. As part of cardiac safety evaluation, its safety in-vitro screening for cardiac toxicity was preliminarily evaluated.
• HEK293 cells stably expressing hEGR ion channels
Electrodes were drawn using PC-10 (Narishige, Japan). The whole cell patch clamp was used for recording, and noise was filtered using one fifth of a sampling frequency. The cells were clamped at −80 mV, then depolarized to 40 mV using square waves lasting for 4 seconds, and then hyperpolarized to −40 mV using square waves lasting for 2 seconds to obtain an hERG tail current. This procedure was repeated every 20 seconds. The hERG tail current was a pure hERG current. A maximum current triggered by the second square wave was detected, after the maximum current was stable, the compounds were tested through perfusion, and after reaction was stable, a blocking intensity was calculated.

In experiment [3] the target is T2, LSD1 (Homo sapiens, UniProt O60341).
T2 construct: purchased Active Motif 31432
The experiment in a line: LSD1 activity test (HTRF). The experiment is classed as biochemical. Conditions: H3(1-21)K4 me1-biotin substrate, read-out: IC50, inhibitory activity on LSD1. How it is done: In this test, a homogeneous time resolved fluorescence (HTRF) technology was utilized, and the inhibitory activity of compounds on LSD1 was detected by adopting a two-step method. The first step was to incubate LSD1, compounds of different concentrations, and a biotin-labeled methylated polypeptide substrate (H3(1-21)K4 me1-biotin) at the room temperature for fixed time.
A corresponding solution with a 1000-fold final concentration was formed by dilution in a 384-well Source plate, and then Echo550 was used for transferring 10 nL to a 384-well reaction plate for being tested.
An inhibition percentage was calculated using a maximum value, a minimum value, and a signal value (maximum value: fluorescence intensity of 5 μL of 2× enzyme solution+5 μL of 2× substrate mixed solution+10 nL of 100% DMSO+10 μL of detection solution; minimum value: fluorescence intensity of 5 μL of 1× reaction solution+5 μL of 2× substrate mixed solution+10 nL of 100% DMSO+10 μL of detection solution; and signal value: fluorescence intensity of 5 μL of 2× enzyme solution+5 μL of 2× substrate mixed solution+10 nL of diluted compound to be tested+10 μL of detection solution), and a calculation formula was as follows: […]
Using a logarithm of the concentration as an X axis and the percentage inhibition rate as a Y axis, a dose-response curve was fitted using a formula log(inhibitor) vs. response-Variable slope (Four parameters) of analysis software Graphpad Prism 5 to obtain the IC50 value of each compound on the enzyme activity.
Background: TR-FRET usually uses a lanthanide donor and a delayed reading to cut background.

In turn, `COc1ccc(-c2c(-c3ccc(C#N)c(F)c3)nc(N3CCC(N)CC3)n(C)c2=O)cc1F` [CC-90011, reference compound] registered a TGI in experiment [1] of 35.3%.
On to `CC(C)(O)Cn1ncc2cc(-c3c(C#N)cc(N4CCC(N)CC4)nc3-c3ccc(C#N)c(F)c3)c(F)cc21` [Compound 16, 6-(4-aminopiperid-1-yl)-2-(4-cyano-3-fluorophenyl)-3-(6-fluoro-1-(2-hydroxyl-2-methylpropyl)-1H-indazol-5-yl)isonicotinonitrile], for which the concentration for half-maximal inhibition (IC50) in experiment [2] is greater than 10000 nM; in experiment [3] it was 0.23 nM. The tumour growth inhibition (TGI) in experiment [1] turned out to be 73.2%.
`CC(C)(O)Cn1nc(F)c2cc(-c3c(C#N)cc(N4CCC(N)CC4)nc3-c3ccc(C#N)c(F)c3)c(F)cc21` [Compound 36, 6-(4-aminopiperid-1-yl)-2-(4-cyano-3-fluorophenyl)-3-(3,6-difluoro-1-(2-hydroxyl-2-methylpropyl)-1H-indazol-5-yl)isonicotinonitrile]: the IC50 in experiment [3] turned out to be 0.45 nM.

What is called TGI is the reduction of tumour growth relative to the control group. Read a low TGI as little slowing of growth. Usually IC50 stands for the midpoint of a concentration-inhibition curve.
